Literature values as cited in US6767915B2, “Substituted piperidines as melanocortin receptor agonists” (Merck & Co., Inc., priority 2000, dated 2004).

Key:
[1] = test system: psychogenic erectile dysfunction
[2] = in vivo, po
erectile dysfunction = conditions: for duration of effect / onset of action: after an oral dose; for share of men/patients with adequate response: oral

| Molecule | response rate ([1]; injected intramuscularly or subcutaneously, males with psychogenic erectile dysfunction) | duration of action ([1]; subcutaneous injection) | time to onset of erection ([1]; subcutaneous injection) | absorption into the systemic circulation [2] | duration of effect (erectile dysfunction) | onset of action (erectile dysfunction) | share of men/patients with adequate response (erectile dysfunction) |
| --- | --- | --- | --- | --- | --- | --- | --- |
| Ac-Nle-c[Asp-His-DPhe-Arg-Trp-Lys]-NH2 [MT-II] | 75% | approximately 2.5 hours | 10 to 20 min | not absorbed into the systemic circulation |  |  |  |
| CCCc1nn(C)c2c(=O)[nH]c(-c3cc(S(=O)(=O)N4CCN(C)CC4)ccc3OCC)nc12 [sildenafil] |  |  |  |  | about 4 hours | 30 to 60 min | about 70% |
| Cc1ccc(N(CC2=NCCN2)c2cccc(O)c2)cc1 [phentolamine] |  |  |  |  | 2 h | 5 to 30 min | 35-40% |
